Broadly, the chromatographic logP is a lipophilicity value derived from retention on a column.

Molecules are shown by their SMILES.

The nature of data set [1]: Log P by HPLC on reversed phase columns (EEC directive 79/831 Annex V.A8; methods [a], [b], [c]). The format is physicochemical. As to conditions: reversed phase HPLC column; method [a]: LC-UV, acidic range, 0.1% formic acid in water and acetonitrile as eluent (linear gradient from 10% to 95% acetonitrile). In short, it runs like this: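 Log P derived from retention times, interpolated linearly between bracketing straight-chain alkan-2-ones (3–16 carbons) of known Log P. Eluents ran acetonitrile 10% to 95% against water with 0.1% formic acid ([a], acidic), 0.001 M ammonium acetate ([b], neutral) or 0.1% phosphoric acid ([c], acidic); UV read-out.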

In a further data set the test system is Puccinia recondita. Kind of data set: Example IX-A: in vivo preventive test on Puccinia recondita (brown rust on wheat). As to conditions: 264 h, compounds of formula IX, 500 ppm of active ingredient, wheat plants, preventive spray, evaluated 11 days after inoculation, read-out: efficacy. The method, then: Example IX-A: In Vivo Preventive Test on Puccinia Recondita (Brown Rust on Wheat)
(§1) The active ingredients are made soluble and homogenized in a mixture of Dimethyl sulfoxide/Acetone/Tween® 80 and then diluted in water to the desired concentration.
(§2) The young plants of wheat are treated by spraying the active ingredient prepared as described above. Control plants are treated only with an aqueous solution of Acetone/Dimethyl sulfoxide/Tween® 80.
After 24 hours, the plants are contaminated by spraying the leaves with an aqueous suspension of Puccinia recondita spores. The contaminated wheat plants are incubated for 24 hours at 20° C. and at 100% relative humidity and then for 10 days at 20° C. and at 70-80% relative humidity.
(§3) The test is evaluated 11 days after the inoculation. 0% means an efficacy which corresponds to that of the control plants while an efficacy of 100% means that no disease is observed.

The next data set concerns Septoria tritici. Kind of data set: Example IX-B: in vivo preventive test on Septoria tritici (leaf spot on wheat). Conditions: Zymoseptoria tritici, 576 h; compounds of formula IX; 500 ppm of active ingredient; wheat plants, preventive spray; evaluated 24 days after inoculation; read-out: efficacy. As for the experimental part:
Example IX-B: In Vivo Preventive Test on Septoria Tritici (Leaf Spot on Wheat)
as §1, §2
After 24 hours, the plants are contaminated by spraying the leaves with an aqueous suspension of Septoria tritici spores. The contaminated wheat plants are incubated for 72 hours at 18° C. and at 100% relative humidity and then for 21 days at 20° C. and at 90% relative humidity.
The test is evaluated 24 days after the inoculation. 0% means an efficacy which corresponds to that of the control plants while an efficacy of 100% means that no disease is observed.

Another data set has as its system Sphaerotheca fuliginea. The data set is described as follows: Example IX-C: in vivo preventive test on Sphaerotheca fuliginea (powdery mildew on cucurbits). Conditions: Podosphaera fuliginea, 360 h; compounds of formula IX; 500 ppm of active ingredient; gherkin plants, preventive spray; evaluated 15 days after inoculation; read-out: efficacy. As for the experimental part:
Example IX-C: In Vivo Preventive Test on Sphaerotheca Fuliginea (Powdery Mildew on Cucurbits)
as §1
The young plants of gherkin are treated by spraying the active ingredient prepared as described above. Control plants are treated only with an aqueous solution of Acetone/Dimethyl sulfoxide/Tween® 80.
After 24 hours, the plants are contaminated by spraying the leaves with an aqueous suspension of Sphaerotheca fuliginea spores. The contaminated gherkin plants are incubated for 72 hours at 18° C. and at 100% relative humidity and then for 12 days at 20° C. and at 70-80% relative humidity.
The test is evaluated 15 days after the inoculation. 0% means an efficacy which corresponds to that of the control plants while an efficacy of 100% means that no disease is observed.

In a further data set the test system is Uromyces appendiculatus. The data set is described as follows: Example IX-D: in vivo preventive test on Uromyces appendiculatus (bean rust). As to conditions: 264 h, compounds of formula IX, 500 ppm of active ingredient, bean plants, preventive spray, evaluated 11 days after inoculation, read-out: efficacy. As for the experimental part: Example IX-D: In Vivo Preventive Test on Uromyces Appendiculatus (Bean Rust)
as §1
The young plants of bean are treated by spraying the active ingredient prepared as described above. Control plants are treated only with an aqueous solution of Acetone/Dimethyl sulfoxide/Tween® 80.
After 24 hours, the plants are contaminated by spraying the leaves with an aqueous suspension of Uromyces appendiculatus spores. The contaminated bean plants are incubated for 24 hours at 20° C. and at 100% relative humidity and then for 10 days at 20° C. and at 70-80% relative humidity.
as §3
control plants while an efficacy of 100% means that no disease was observed.

In turn, `O=C(Cn1cncc1Cl)c1ccc(Oc2ccc(Cl)cc2)cc1C(F)(F)F` [IX-30] displayed a chromatographic logP in data set [1] of 3.37. For the same molecule, the pest or weed control at 500 ppm in the data set with Puccinia recondita lay in the range of 70 to 79%; in the data set with Septoria tritici, 90 to 100%; in the data set with Sphaerotheca fuliginea it was 80 to 89%; with Uromyces appendiculatus it was 90 to 100%.
Molecule `O=C(Cn1cncc1F)c1ccc(Oc2ccc(Cl)cc2)nc1F` [IX-88] gave a chromatographic logP in data set [1] of 2.14. Moreover, the pest or weed control at 500 ppm in the data set on Puccinia recondita fell in the range of 70 to 79%; in the data set with Septoria tritici, 90 to 100%; with Sphaerotheca fuliginea, 90 to 100%; in the data set on Uromyces appendiculatus, 80 to 89%.
In data set [1], `O=C(Cn1cncc1Br)c1ccc(Oc2ccc(Br)cc2)cc1C(F)(F)F` [IX-40] yielded a chromatographic logP of 3.46. In addition, the figures for the pest or weed control at 500 ppm in the data set on Puccinia recondita, in the data set on Septoria tritici and in the data set on Uromyces appendiculatus were 80 to 89%, 90 to 100% and 90 to 100%, respectively.
In data set [1], `O=C(Cn1cncc1Br)c1ccc(Oc2ccc(Br)cc2)cc1Br` [IX-36] yielded a chromatographic logP of 3.16. Besides, the pest or weed control at 500 ppm with Puccinia recondita was in the range of 80 to 89%; with Septoria tritici it was 90 to 100%; in the data set with Sphaerotheca fuliginea it was 90 to 100%; in the data set on Uromyces appendiculatus, 90 to 100%.
`O=C(Cn1cncc1F)c1cnc(Oc2ccc(C(F)(F)F)cc2)cc1Cl` [IX-110] returned a chromatographic logP in data set [1] of 2.56. Moreover, the pest or weed control at 500 ppm with Puccinia recondita, with Septoria tritici, in the data set with Sphaerotheca fuliginea and in the data set on Uromyces appendiculatus was 90 to 100% each time.
Turning to `N#Cc1cncn1CC(=O)c1cnc(Oc2ccc(Cl)cc2)cc1C(F)(F)F` [IX-109], the chromatographic logP in data set [1] came to 3.17. Further, the pest or weed control at 500 ppm with Puccinia recondita was in the range of 70 to 79%; in the data set on Septoria tritici it was 90 to 100%; with Sphaerotheca fuliginea it was 90 to 100%; with Uromyces appendiculatus it was 90 to 100%.
`O=C(Cn1cncc1Cl)c1ccc(Oc2ccc(Cl)cc2)cc1F` [IX-45]: the chromatographic logP in data set [1] came out at 2.75. For the same molecule, the pest or weed control at 500 ppm was in the range of 90 to 100% with Puccinia recondita, 90 to 100% in the data set on Septoria tritici, 90 to 100% in the data set on Sphaerotheca fuliginea and 70 to 79% with Uromyces appendiculatus.
`N#Cc1cncn1CC(=O)c1ccc(Oc2ccc(S(F)(F)(F)(F)F)cc2)nc1Cl` [IX-74]: in data set [1], the chromatographic logP was 3.42. For the same molecule, the pest or weed control at 500 ppm in the data set on Puccinia recondita, with Septoria tritici, with Sphaerotheca fuliginea and in the data set on Uromyces appendiculatus was 90 to 100% in each case.
Take `O=C(Cn1cncc1Cl)c1cnc(Oc2ccc(Cl)cc2)cc1Cl` [IX-23]: the chromatographic logP in data set [1] is 2.75. Moreover, the pest or weed control at 500 ppm is 80 to 89% with Puccinia recondita, 90 to 100% in the data set with Septoria tritici, 90 to 100% in the data set on Sphaerotheca fuliginea and 90 to 100% with Uromyces appendiculatus.
Consider `O=C(Cn1cncc1F)c1cnc(Oc2ccc(OC(F)(F)F)cc2)cc1C(F)(F)F` [IX-108], for which the chromatographic logP in data set [1] is 2.89. Besides, the pest or weed control at 500 ppm in the data set with Puccinia recondita is 80 to 89%; in the data set with Septoria tritici, 90 to 100%; in the data set with Sphaerotheca fuliginea, 90 to 100%; in the data set on Uromyces appendiculatus, 90 to 100%.
`O=C(Cn1cncc1Cl)c1ccc(Oc2ccc(Cl)cc2)cc1Br` [IX-34] gave a chromatographic logP in data set [1] of 3.15. The pest or weed control at 500 ppm in the data set on Puccinia recondita is 80 to 89%; with Septoria tritici, 90 to 100%; in the data set on Sphaerotheca fuliginea, 90 to 100%; with Uromyces appendiculatus it was 90 to 100%.
The molecule `O=C(Cn1cncc1Br)c1ccc(Oc2ccc(I)cc2)cc1Br` [IX-42] displayed a chromatographic logP in data set [1] of 3.55. In addition, the pest or weed control at 500 ppm with Puccinia recondita was in the range of 80 to 89%; in the data set with Septoria tritici, 90 to 100%; in the data set with Sphaerotheca fuliginea it was 90 to 100%; in the data set with Uromyces appendiculatus it was 90 to 100%.
In data set [1], `N#Cc1cncn1CC(=O)c1cnc(Oc2ccc(C(F)(F)F)cc2)cc1Cl` [IX-114] gave a chromatographic logP of 3.29. In addition, the pest or weed control at 500 ppm in the data set with Puccinia recondita was in the range of 90 to 100%; in the data set on Septoria tritici, 90 to 100%; with Sphaerotheca fuliginea, 80 to 89%; in the data set with Uromyces appendiculatus, 90 to 100%.
`N#Cc1cncn1CC(=O)c1cnc(Oc2ccc(C(F)F)cc2)cc1C(F)(F)F` [IX-98] yielded a chromatographic logP in data set [1] of 3.13. Besides, the pest or weed control at 500 ppm in the data set with Puccinia recondita is 80 to 89%; with Septoria tritici, 90 to 100%; with Uromyces appendiculatus it was 90 to 100%.
In data set [1], `CC(=O)c1cncn1CC(=O)c1cnc(Oc2ccc(Cl)cc2)cc1C(F)(F)F` [IX-120] showed a chromatographic logP of 3.55. The pest or weed control at 500 ppm with Puccinia recondita lay in the range of 90 to 100%; with Septoria tritici it was 90 to 100%; in the data set on Uromyces appendiculatus it was 80 to 89%.
Take `O=C(Cn1cncc1Cl)c1ccc(Oc2ccc(C(F)(F)F)cc2)cc1C(F)(F)F` [IX-53]: the chromatographic logP in data set [1] worked out at 3.51. In addition, the pest or weed control at 500 ppm in the data set with Puccinia recondita, with Septoria tritici and with Uromyces appendiculatus was 90 to 100% throughout.
In data set [1], `N#Cc1cncn1CC(=O)c1cnc(Oc2ccc(Br)cc2)cc1C(F)F` [IX-123] registered a chromatographic logP of 2.89. Besides, the pest or weed control at 500 ppm in the data set with Puccinia recondita, in the data set on Septoria tritici and in the data set on Uromyces appendiculatus was 90 to 100% each time.
For `O=C(Cn1cncc1F)c1cnc(Oc2ccc(C(F)F)cc2)cc1C(F)(F)F` [IX-97], in data set [1], the chromatographic logP stood at 2.53. Besides, the pest or weed control at 500 ppm in the data set on Puccinia recondita fell in the range of 80 to 89%; with Septoria tritici it was 90 to 100%; in the data set with Uromyces appendiculatus, 90 to 100%.
The molecule `N#Cc1cncn1CC(=O)c1ccc(Oc2ccc(OC(F)(F)F)cc2)nc1C(F)(F)F` [IX-129] returned a chromatographic logP in data set [1] of 3.32. Further, the pest or weed control at 500 ppm with Puccinia recondita, in the data set on Septoria tritici and in the data set on Sphaerotheca fuliginea was 90 to 100% each time.
`N#Cc1cncn1CC(=O)c1cnc(Oc2ccc(Br)nc2)cc1C(F)(F)F` [IX-143] showed a chromatographic logP in data set [1] of 2.71. The pest or weed control at 500 ppm in the data set with Puccinia recondita was 80 to 89%; in the data set on Septoria tritici, 90 to 100%; in the data set on Sphaerotheca fuliginea it was 90 to 100%.
Consider `N#Cc1cncn1CC(=O)c1ccc(Cl)cc1Cl` [IX-99], for which the chromatographic logP in data set [1] turned out to be 2.34. Also, the pest or weed control at 500 ppm in the data set on Puccinia recondita was 70 to 79%; in the data set with Septoria tritici, 90 to 100%; in the data set with Sphaerotheca fuliginea, 90 to 100%.
For the molecule `N#Cc1cncn1CC(=O)c1ccc(Oc2ccc(C(F)(F)F)cc2)nc1C(F)(F)F` [IX-137], in data set [1], the chromatographic logP was found to be 3.35. Besides, the pest or weed control at 500 ppm with Puccinia recondita, with Septoria tritici and with Sphaerotheca fuliginea was 90 to 100% each time.
In turn, `N#Cc1cncn1CC(=O)c1ccc(Oc2ccc(Br)cc2)nc1C(F)(F)F` [IX-118] had a chromatographic logP in data set [1] of 3.39. Also, the pest or weed control at 500 ppm in the data set with Septoria tritici was 90 to 100%; with Sphaerotheca fuliginea it was 90 to 100%; with Uromyces appendiculatus it was 80 to 89%.
As for `O=C(Cn1cncc1Cl)c1ccc(Oc2ccc(Cl)cc2)cc1C(F)F` [IX-73], the chromatographic logP in data set [1] was 3.02. Also, the pest or weed control at 500 ppm in the data set on Puccinia recondita, with Septoria tritici and in the data set on Uromyces appendiculatus was 90 to 100% in each case.
In data set [1], `N#Cc1cncn1CC(=O)c1ccc(Oc2ccc(Br)nc2)nc1C(F)(F)F` [IX-144] showed a chromatographic logP of 2.68. Moreover, the pest or weed control at 500 ppm with Puccinia recondita lay in the range of 70 to 79%; in the data set on Septoria tritici, 90 to 100%; in the data set with Sphaerotheca fuliginea, 90 to 100%.

Values taken from patent publication US20200031778A1, “NOVEL 5-SUBSTITUTED IMIDAZOLYLMETHYL DERIVATIVES” (Bayer CropScience Aktiengesellschaft, priority 2016, published 2020).
